Data from patent publication US12077503B2, “Substituted cyclic amides and their use as herbicides” (FMC CORPORATION, priority 2015, dated 2024).

What was measured:
Format in all cases: in vivo
[1] = test system: ivy-leaved morning glory (Ipomoea hederacea); assay: Test G Pre-Emergence Protocol; conditions: Ipomoea, pre-emergence, 312 h, evaluated after 13 days; for pest or weed control at 62.5 g/ha: 62.5 g ai/ha, 100=total damage to plant, 0=no damage to plant, read-out: plant damage rating, Morningglory, Ivy-leaved; for pest or weed control at 250 g/ha: 250 g ai/ha, read-out: Morningglory, Ivy-leaved damage rating (100=total damage to plant; 0=no damage to plant); for pest or weed control at 15.625 g/ha: 15.625 g ai/ha, read-out: Morning-glory, Ivy-leaved damage rating (100=total damage to plant; 0=no damage to plant)
Protocol: (§1) Seeds of corn (Zea mays), giant foxtail (Setaria faberi), barnyardgrass (Echinochloa crus-galli), ivy-leaved morning glory (Ipomoea hederacea), redroot pigweed (Amaranthus retroflexus) and velvetleaf (Abutilon theophrasti) were sown in standard soil in pots. After cultivation for one day under controlled conditions in a glasshouse (at 24/16° C., day/night; 14 hours light; 65% humidity), the plants were sprayed with an aqueous spray solution derived from the formulation of the technical active ingredient in acetone/water (50:50) solution containing 0.5% Tween 20 (polyoxyethylene sorbitan monolaurate, CAS RN 9005-64-5) to give a final dose of 15.625, 62.5 or 250 g/ha of test compound.
(§2) The test plants were then grown on under controlled conditions in a glasshouse (at 24/16° C., day/night; 14 hours light; 65% humidity) and watered twice daily. After 13 days the test was evaluated (100=total damage to plant; 0=no damage to plant). A dash (-) means no test result.

[2] = test system: corn (Zea mays); assay: Test G Pre-Emergence Protocol; conditions: Zea mays, pre-emergence, 312 h, evaluated after 13 days; for plant injury at 15.625 g/ha: 15.625 g ai/ha; for plant injury at 15.625 g/ha / plant injury at 250 g/ha: read-out: Corn damage rating (100=total damage to plant; 0=no damage to plant); for plant injury at 62.5 g/ha: 62.5 g ai/ha, 100=total damage to plant, 0=no damage to plant, read-out: plant damage rating, Corn; for plant injury at 250 g/ha: 250 g ai/ha
Protocol: as §1, §2

[3] = test system: redroot pigweed (Amaranthus retroflexus); assay: Test G Pre-Emergence Protocol; conditions: Amaranthus retroflexus, pre-emergence, 312 h, evaluated after 13 days; for pest or weed control at 15.625 g/ha: 15.625 g ai/ha; for pest or weed control at 15.625 g/ha / pest or weed control at 250 g/ha: read-out: Pigweed, Redroot damage rating (100=total damage to plant; 0=no damage to plant); for pest or weed control at 62.5 g/ha: 62.5 g ai/ha, 100=total damage to plant, 0=no damage to plant, read-out: plant damage rating, Pigweed, Redroot; for pest or weed control at 250 g/ha: 250 g ai/ha
Protocol: as §1, §2

[4] = test system: velvetleaf (Abutilon theophrasti); assay: Test G Pre-Emergence Protocol; conditions: Abutilon theophrasti, pre-emergence, 312 h, evaluated after 13 days; for pest or weed control at 15.625 g/ha: 15.625 g ai/ha; for pest or weed control at 15.625 g/ha / pest or weed control at 250 g/ha: read-out: Velvetleaf damage rating (100=total damage to plant; 0=no damage to plant); for pest or weed control at 62.5 g/ha: 62.5 g ai/ha, 100=total damage to plant, 0=no damage to plant, read-out: plant damage rating, Velvetleaf; for pest or weed control at 250 g/ha: 250 g ai/ha
Protocol: as §1, §2

[5] = test system: giant foxtail (Setaria faberi); assay: Test G Pre-Emergence Protocol; conditions: Setaria faberi, pre-emergence, 312 h, evaluated after 13 days; for pest or weed control at 15.625 g/ha: 15.625 g ai/ha; for pest or weed control at 15.625 g/ha / pest or weed control at 250 g/ha: read-out: Foxtail, Giant damage rating (100=total damage to plant; 0=no damage to plant); for pest or weed control at 62.5 g/ha: 62.5 g ai/ha, 100=total damage to plant, 0=no damage to plant, read-out: plant damage rating, Foxtail, Giant; for pest or weed control at 250 g/ha: 250 g ai/ha
Protocol: as §1, §2

[6] = test system: barnyardgrass (Echinochloa crus-galli); assay: Test G Pre-Emergence Protocol; conditions: Echinochloa crus-galli, pre-emergence, 312 h, evaluated after 13 days; for pest or weed control at 15.625 g/ha: 15.625 g ai/ha, read-out: Barnyard grass damage rating (100=total damage to plant; 0=no damage to plant); for pest or weed control at 62.5 g/ha: 62.5 g ai/ha, 100=total damage to plant, 0=no damage to plant, read-out: plant damage rating, Barnyardgrass; for pest or weed control at 250 g/ha: 250 g ai/ha, read-out: Barnyardgrass damage rating (100=total damage to plant; 0=no damage to plant)
Protocol: as §1, §2

[7] = test system: crabgrass, large (Digitaria sanguinalis); assay: Test A preemergence; conditions: Digitaria sanguinalis, pre-emergence, 240 h, 0 to 100 scale (0 no effect, 100 complete control), read-out: Plant response rating, Crabgrass, Large
In short: (§3)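 Seeds sprayed preemergence with a directed soil spray, or plants at 2 to 10 cm height and one- to two-leaf stage sprayed postemergence, with test chemicals in a non-phytotoxic solvent mixture containing surfactant, in loam soil–sand blend. Injury rated visually against untreated controls after about 10 d in greenhouse, 0 (no effect) to 100 (complete control).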

[8] = test system: wheat (Triticum aestivum); assay: Test A preemergence; conditions: Triticum aestivum, pre-emergence, 240 h, 0 to 100 scale (0 no effect, 100 complete control), read-out: Plant response rating, Wheat
In short: as §3

[9] = test system: corn (Zea mays); assay: Test A preemergence; conditions: Zea mays, pre-emergence, 240 h, 0 to 100 scale (0 no effect, 100 complete control)
In short: as §3

[10] = test system: velvetleaf (Abutilon theophrasti); assay: Test A preemergence; conditions: Abutilon theophrasti, pre-emergence, 240 h, 0 to 100 scale (0 no effect, 100 complete control), read-out: Plant response rating, Velvetleaf
In short: as §3

[11] = test system: morningglory (Ipomoea spp.); assay: Test A preemergence; conditions: Ipomoea, pre-emergence, 240 h, 0 to 100 scale (0 no effect, 100 complete control), read-out: Plant response rating, Morningglory
In short: as §3

[12] = test system: crabgrass, large (Digitaria sanguinalis); assay: Test A postemergence; conditions: Digitaria sanguinalis, post-emergence, 240 h, Postemergence
In short: as §3

[13] = test system: velvetleaf (Abutilon theophrasti); assay: Test A postemergence; conditions: Abutilon theophrasti, post-emergence, 240 h, Postemergence
In short: as §3

[14] = test system: morningglory (Ipomoea spp.); assay: Test A postemergence; conditions: Ipomoea, post-emergence, 240 h, Postemergence
In short: as §3

Row | SMILES | pest or weed control at 62.5 g/ha [1] | pest or weed control at 250 g/ha [1] | plant injury at 15.625 g/ha [2] | plant injury at 62.5 g/ha [2] | plant injury at 250 g/ha [2] | pest or weed control at 15.625 g/ha [3] | pest or weed control at 62.5 g/ha [3] | pest or weed control at 250 g/ha [3] | pest or weed control at 15.625 g/ha [4] | pest or weed control at 62.5 g/ha [4] | pest or weed control at 250 g/ha [4] | pest or weed control at 15.625 g/ha [5] | pest or weed control at 62.5 g/ha [5] | pest or weed control at 250 g/ha [5] | pest or weed control at 15.625 g/ha [6] | pest or weed control at 62.5 g/ha [6] | pest or weed control at 250 g/ha [6] | pest or weed control at 15.625 g/ha [1] | other results
1 | CN1C[C@@H](c2ccc(C(F)(F)F)cc2)[C@H](C(=O)Nc2cnccc2C(F)(F)F)C1=O (racemic) [Compound 1401] | 0% | 20% | 0% | 10% | 20% | 0% | 40% | 90% | 0% | 30% | 70% | 40% | 70% | 90% | 20% | 30% | 80% | – | –
2 | CN1C[C@H](c2cccc(C(C)(C)C#N)c2)[C@@H](C(=O)Nc2cccc(F)c2F)C1=O (racemic) [Compound 1497] | 0% | 20% | 0% | 0% | 10% | 0% | 0% | 0% | 0% | 0% | 0% | 0% | 60% | 80% | 0% | 30% | 80% | 0% | –
3 | CN1C[C@@H](c2ccc(C(F)(F)F)cc2)[C@H](C(=O)Nc2ncc(C(F)(F)F)s2)C1=O (racemic) [Compound 1504] | 0% | 0% | 0% | 0% | 0% | 0% | 0% | 0% | 0% | 0% | 0% | 0% | 0% | 0% | 0% | 0% | 0% | 0% | –
4 | O=C1NCC(c2ccccc2)C1C(=O)Nc1cc(F)ccc1F (stereo not shown) [Compound 1359] | – | – | – | – | – | – | – | – | – | – | – | – | – | – | – | – | – | – | pest or weed control at 500 g/ha ([7]; 500 g ai/ha, preemergence): 20%; pest or weed control at 125 g/ha ([7]; Preemergence, 125 g ai/ha): 0%; plant injury at 500 g/ha ([8]; 500 g ai/ha, preemergence): 0%; plant injury at 125 g/ha ([8]; Preemergence, 125 g ai/ha): 0%; Corn plant response rating (crop injury, 0 = no effect, 100 = complete kill) at 500 g/ha ([9]; 500 g ai/ha, preemergence): 0%; Corn plant response rating (crop injury, 0 = no effect, 100 = complete kill) at 125 g/ha ([9]; Preemergence, 125 g ai/ha): 0%; pest or weed control at 500 g/ha ([10]; 500 g ai/ha, preemergence): 0%; pest or weed control at 125 g/ha ([10]; Preemergence, 125 g ai/ha): 0%; pest or weed control at 500 g/ha ([11]; 500 g ai/ha, preemergence): 0%; pest or weed control at 125 g/ha ([11]; Preemergence, 125 g ai/ha): 0%; pest or weed control at 125 g/ha ([12]; 125 g ai/ha, visual rating about 10 d after treatment, read-out: Crabgrass, Large plant response rating (0 to 100 scale)): 0%; pest or weed control at 500 g/ha ([12]; 500 g ai/ha, visual injury, 0 to 100 scale (0 no effect, 100 complete control), approx. 10 d, read-out: Plant response rating, Crabgrass, Large): 0%; pest or weed control at 125 g/ha ([13]; 125 g ai/ha, visual rating about 10 d after treatment, read-out: Velvetleaf plant response rating (0 to 100 scale)): 0%; pest or weed control at 500 g/ha ([13]; 500 g ai/ha, visual injury, 0 to 100 scale (0 no effect, 100 complete control), approx. 10 d, read-out: Plant response rating, Velvetleaf): 0%; pest or weed control at 125 g/ha ([14]; 125 g ai/ha, visual rating about 10 d after treatment, read-out: Morningglory plant response rating (0 to 100 scale)): 0%; pest or weed control at 500 g/ha ([14]; 500 g ai/ha, visual injury, 0 to 100 scale (0 no effect, 100 complete control), approx. 10 d, read-out: Plant response rating, Morningglory): 0%
5 | CN1C[C@@H](c2ccc(C(F)(F)F)cc2)[C@H](C(=O)Nc2ccnc(Cl)c2Cl)C1=O (racemic) [Compound 1503] | 0% | 0% | 0% | 0% | 0% | 0% | – | 0% | 0% | 0% | 0% | 0% | 0% | 30% | 0% | 0% | 20% | – | –
